From paper doi:10.1101/2022.12.07.519454v2 (biorxiv, 2023)

Experiments:
yeast Sin3 PAH2 domain [1] = biological target: T1, yeast Sin3 PAH2 domain (Saccharomyces cerevisiae, UniProt P22579); experiment: fluorescence polarization displacement of FITC-Ume6 SID peptide; assay type: binding
T1 sequence (P22579 402-473): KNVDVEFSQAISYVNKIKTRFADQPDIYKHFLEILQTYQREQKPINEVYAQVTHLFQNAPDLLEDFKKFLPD

yeast Sin3 PAH2 domain [2] = biological target: T1, yeast Sin3 PAH2 domain; experiment: fluorescence polarization displacement of FITC-Ume6 SID; assay type: binding

IC50 (yeast Sin3 PAH2 domain [1])	Ki (yeast Sin3 PAH2 domain [2])	Structure (SMILES)
74.5 ± 7.2 µM	16.1 µM	C[C@@H](NC(=O)C1C(=O)N=C2C=CC=CN2C1O)c1ccccc1 (stereo partly drawn) [E6R, 4-hydroxy-2-oxo-N-((R)-1-phenylethyl)-3,4-dihydro-2H-pyrido[1,2-a]pyrimidine-3-carboxamide]
174 ± 21.9 µM	38.5 µM	C[C@H](NC(=O)C1C(=O)N=C2C=CC=CN2C1O)c1ccccc1 (stereo partly drawn) [E6S, 4-hydroxy-2-oxo-N-((S)-1-phenylethyl)-3,4-dihydro-2H-pyrido[1,2-a]pyrimidine-3-carboxamide]
